Source: PMC2191296 (The Journal of Experimental Medicine, 1993)

Experiments:
[1] = Solubility of synthetic peptides in water; type: physicochemical; settings: peptides dissolved in dH2O; insoluble ones reconstituted in 20% DMSO
mAb 34-5-8S = test: Control: binding of free peptide to the immobilized 34-5-8S antibody surface; settings: free peptide without H-2Dd at concentrations as high as 222 uM; SPR
H-2Dd = H-2Dd (Mus musculus, UniProt P01900); test: Solution phase competition assay; type: binding; settings: data not shown
Chain of H-2Dd (P01900 whole entry, looked up): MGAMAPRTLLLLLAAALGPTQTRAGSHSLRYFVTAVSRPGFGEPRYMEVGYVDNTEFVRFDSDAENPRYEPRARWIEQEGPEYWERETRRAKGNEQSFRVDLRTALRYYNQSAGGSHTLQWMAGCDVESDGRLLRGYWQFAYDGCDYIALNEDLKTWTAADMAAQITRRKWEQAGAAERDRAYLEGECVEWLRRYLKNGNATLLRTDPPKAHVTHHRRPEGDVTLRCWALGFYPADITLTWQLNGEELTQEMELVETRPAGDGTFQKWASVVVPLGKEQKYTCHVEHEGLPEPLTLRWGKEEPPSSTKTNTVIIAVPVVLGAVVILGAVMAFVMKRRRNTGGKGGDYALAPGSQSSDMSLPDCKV

Sequence	solubility in water / aqueous solution [1]	signal of free peptide on immobilized 34-5-8S (mAb 34-5-8S) [RU]	relative binding to H-2Dd (H-2Dd)
SGPVALVNF [pD46B]	relative aqueous insolubility	–	–
AGPARAAAL [pD2359]	–	< 7	binds better than pD239
SGPVALVNFI [pD46A]	relative aqueous insolubility	–	–
